target: T1, human HSL (Homo sapiens, UniProt Q05469); assay: Human hormone-sensitive lipase (HSL) enzyme inhibition assay (colorimetric, DMPT substrate); format: biochemical; conditions: human full length HSL-His6; 2,3-dimercapto-1-propanol tributyrate substrate; 37° C., 20 minutes; read-out: HSL hum IC50
T1 construct: overlapping PCR to generate a full length human HSL ORF with a 3′-His6 tag; His6 (C); made in house; host or cells: High 5 insect cells (baculovirus, pFast-BAC)
T1 sequence (Q05469 1-1076): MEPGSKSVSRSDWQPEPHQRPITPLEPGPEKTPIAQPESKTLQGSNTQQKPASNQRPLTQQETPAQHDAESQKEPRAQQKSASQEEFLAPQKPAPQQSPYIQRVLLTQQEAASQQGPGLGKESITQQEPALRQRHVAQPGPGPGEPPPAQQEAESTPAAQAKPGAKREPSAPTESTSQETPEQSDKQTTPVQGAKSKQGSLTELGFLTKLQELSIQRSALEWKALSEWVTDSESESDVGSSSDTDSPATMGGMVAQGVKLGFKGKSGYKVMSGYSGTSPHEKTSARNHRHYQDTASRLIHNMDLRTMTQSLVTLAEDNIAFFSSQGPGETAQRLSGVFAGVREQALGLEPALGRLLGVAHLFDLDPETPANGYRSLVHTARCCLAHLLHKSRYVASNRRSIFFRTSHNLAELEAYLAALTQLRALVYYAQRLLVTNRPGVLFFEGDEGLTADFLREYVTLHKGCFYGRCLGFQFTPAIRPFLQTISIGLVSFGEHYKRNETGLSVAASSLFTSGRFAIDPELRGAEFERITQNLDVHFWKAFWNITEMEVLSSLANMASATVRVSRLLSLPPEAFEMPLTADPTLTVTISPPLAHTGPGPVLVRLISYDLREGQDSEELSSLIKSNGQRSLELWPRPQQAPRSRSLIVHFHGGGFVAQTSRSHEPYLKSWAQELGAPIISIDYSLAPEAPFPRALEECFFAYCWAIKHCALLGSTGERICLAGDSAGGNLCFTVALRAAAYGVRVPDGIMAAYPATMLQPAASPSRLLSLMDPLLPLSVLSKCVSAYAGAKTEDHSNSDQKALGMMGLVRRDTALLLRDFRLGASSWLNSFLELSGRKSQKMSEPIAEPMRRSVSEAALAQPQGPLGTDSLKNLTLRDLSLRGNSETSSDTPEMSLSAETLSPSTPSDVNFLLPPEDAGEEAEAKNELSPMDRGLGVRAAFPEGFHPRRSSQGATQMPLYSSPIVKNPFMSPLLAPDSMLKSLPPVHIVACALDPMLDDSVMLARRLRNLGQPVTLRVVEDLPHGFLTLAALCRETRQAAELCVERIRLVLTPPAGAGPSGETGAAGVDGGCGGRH
Procedure: Production of Human Full Length Hormone Sensitive Lipase-His^6:
1) Cloning: cDNA was prepared from commercial human brain polyA+ RNA and used as a template in overlapping PCR to generate a full length human HSL ORF with a 3′-His6 tag. This full length insert was cloned into the pFast-BAC vector and the DNA-sequence of several single clones was verified. DNA from a correct full length clone with the 3′His6 tag was used to transform the E. coli strain DH10BAC. Resulting bacmid DNA was used to generate a titered baculovirus stock for protein generation. The sequence of the encoded HSL conforms to Swissprot entry Q05469, with the additional C-terminal His6-tag.
2) Protein purification: Culture: 5.5 L, High 5 cells expressing human full length HSL-His^6, 48 hr., containing 25 μM E-64. Cell count: […], 90% viable. Cells were thawed. On ice, cells were suspended in Base Buffer containing 10% glycerol, 25 mM Tris-Cl, 300 mM NaCl, 10 mM imidazole, 10 mM 2-mercaptoethanol, 2 μg pepstatin/ml, 2 μg leupeptin/ml, 2 μg antipain/ml, pH 8.0 at 4° C. in a final volume of 475 ml with 3.75×10^7 cells/ml. […] was done at 3×30 sec., Lubrol PX was added to 0.2% final concentration followed by stirring for 15 min. at 4° C. and centrifugation at 25 k×g, 60 min., 4° C. Soluble proteins were mixed with 60 ml of pre-washed and equilibrated Ni-NTA Agarose (Qiagen 30210) followed by tumbling end-over-end, 45 min., 4° C., centrifugation 1000 rpm 5 min and letting resin settle 5 min. Supernatant was removed, the resin washed in the centrifuge vessel using 5 volumes of Base Buffer containing 0.2% Lubrol PX. Centrifugation was done again, then the supernatant discarded. The resin was poured onto a 0.8 μm membrane in a disposable filter unit (Nalge 450-0080), and washed with 5 volumes of Base Buffer containing 0.2% Lubrol PX. It was then washed with 30 volumes of Base Buffer containing 60 mM imidazole pH 7.5 at 4° C. The protein was eluated with 5 volumes of 25 mM Tris-Cl, 300 mM NaCl, 200 mM imidazole, 10 mM 2-mercaptoethanol, pH 7.5 at 4° C. by tumbling resin with buffer end-over-end, 30 min., 4° C. The resin was captured on a 0.2 μm membrane disposable filter unit (Millipore SCGP U02 RE) and the eluate collected in the reservoir. The eluate was concentrated using a 30 k MWCO centrifugal filter device (Sartorius Vivascience Vivacell 100, VC1022), to 20 ml. It was then dialyzed overnight at 4° C., two times against 2 L of 10% glycerol, 25 mM Tris-Cl, 300 mM NaCl, 0.2 mM EDTA, 0.2 mM DTT, pH 7.5 at 4° C. The protein was filtered using a 0.22 μm disposable filter unit (Millipore SCGP00525). The protein concentration was calculated from absorbance at 280 nm, using 280=0.67 cm-1 mg-1. Yield was 235 mg, total. The protein was stored at −80° C.
Human Hormone-Sensitive Lipase (HSL) Enzyme Inhibition Assay:
HSL enzyme activity was measured by a colorimetric assay using 2,3-dimercapto-1-propanol tributyrate (Aldrich, St. Louis, Mo.) as a substrate. Typically, 1.5 mM 2,3-dimercapto-1-propanol tributyrate (DMPT) in 100 mM MOPS, pH 7.2, 0.2 mg/ml fatty acid-free BSA was prepared by sonication at 4° C. to homogenous suspension. Test compounds (2 mM stock in DMSO) were diluted 3 fold in series in DMSO. Compound solutions were diluted 24 fold in 1.5 mM DMPT containing solution and 18 ul per well was added to 384-well microplates (Corning Costar). Twelve microliters per well of human HSL (15 ug/ml) was added and the reaction mixture was incubated at 37° C. for 20 minutes. Six microliters of 12 mM dithio-bis-(2-nitrobenzoic acid) (DTNB) in DMSO plus 1.2% SDS and 0.6% Triton X-100 were added and the mixture was incubated at room temperature for 15 minutes. Product production was monitored by reading absorbance at 405 nm on an Envision Reader (PerkinElmer Life and Analytical Sciences, Shelton, Conn.).

| Compound | IC50 |
| --- | --- |
| CC(Oc1ccc(NC(=O)C2CCN(C(=O)c3ccccc3Cl)CC2)cc1)C(F)(F)F (racemic) [Example 44, (rac)-1-(2-Chloro-benzoyl)-piperidine-4-carboxylic acid [4-(2,2,2-trifluoro-1-methyl-ethoxy)-phenyl]-amide] | 620 nM |
| CC1(C(=O)Nc2ccc(OC(C)(C)C(F)(F)F)cc2)CCN(S(=O)(=O)c2ccccc2)CC1 (racemic) [Example 50, (rac)-1-Benzenesulfonyl-4-methyl-piperidine-4-carboxylic acid [4-(2,2,2-trifluoro-1,1-dimethyl-ethoxy)-phenyl]-amide] | 810 nM |
| Cc1ccc(S(=O)(=O)N2CCC(C(=O)Nc3ccc(OCC(O)C(F)(F)F)cc3)CC2)cc1 (racemic) [Example 52, (rac)-1-(Toluene-4-sulfonyl)-piperidine-4-carboxylic acid [4-(3,3,3-trifluoro-2-hydroxy-propoxy)-phenyl]-amide] | 860 nM |
| COC(COc1ccc(NC(=O)C2CCN(S(=O)(=O)c3ccc(C)cc3)CC2)cc1)C(F)(F)F (racemic) [Example 53, (rac)-1-(Toluene-4-sulfonyl)-piperidine-4-carboxylic acid [4-(3,3,3-trifluoro-2-methoxy-propoxy)-phenyl]-amide] | 660 nM |
| Cc1ccc(S(=O)(=O)N2CCC(CO)(C(=O)Nc3ccc(OC(C)C(F)(F)F)cc3)CC2)cc1 (racemic) [Example 55, (rac)-4-Hydroxymethyl-1-(toluene-4-sulfonyl)-piperidine-4-carboxylic acid [4-(2,2,2-trifluoro-1-methyl-ethoxy)-phenyl]-amide] | 1420 nM |
| CC(C)c1ccc(NC(=O)C2CCN(S(=O)(=O)c3ccccc3)CC2)cn1 [Example 2, 1-Benzenesulfonyl-piperidine-4-carboxylic acid (6-isopropyl-pyridin-3-yl)-amide] | 240 nM |
| COc1ccc(NC(=O)C2CCN(S(=O)(=O)c3ccccc3)CC2)nn1 [Example 3, 1-Benzenesulfonyl-piperidine-4-carboxylic acid (6-methoxy-pyridazin-3-yl)-amide] | 12000 nM |
| CC(C)c1ccc(NC(=O)C2CCN(C(=O)CC3CC3)CC2)cc1 [Example 8, 1-(2-Cyclopropyl-acetyl)-piperidine-4-carboxylic acid (4-isopropyl-phenyl)-amide] | 800 nM |
| CC(C)c1ccc(NC(=O)C2CCN(C(=O)CCC3CC3)CC2)cc1 [Example 9, 1-(3-Cyclopropyl-propionyl)-piperidine-4-carboxylic acid (4-isopropyl-phenyl)-amide] | 350 nM |
| CC(C)c1ccc(NC(=O)C2CCN(C(=O)CC(C)(C)C)CC2)cc1 [Example 10] | 200 nM |
| COCCCC1(C(=O)Nc2ccc(OC(C)C)cc2)CCN(S(=O)(=O)c2ccccc2)CC1 [Example 12, 1-Benzenesulfonyl-4-(3-methoxy-propyl)-piperidine-4-carboxylic acid (4-isopropoxy-phenyl)-amide] | 920 nM |
| Cc1ccc(S(=O)(=O)N2CCC(C(=O)Nc3ccc(OCC(F)(F)F)cc3)CC2)cc1 [Example 14, 1-(Toluene-4-sulfonyl)-piperidine-4-carboxylic acid [4-(2,2,2-trifluoro-ethoxy)-phenyl]-amide] | 160 nM |
| Cc1ccc(S(=O)(=O)N2CCC(C(=O)Nc3ccc(OC(C)C)cc3F)CC2)cc1 [Example 15, 1-(Toluene-4-sulfonyl)-piperidine-4-carboxylic acid (2-fluoro-4-isopropoxy-phenyl)-amide] | 470 nM |
| Cc1ccc(S(=O)(=O)N2CCC(C(=O)Nc3ccc4c(c3)CCO4)CC2)cc1 [Example 17, 1-(Toluene-4-sulfonyl)-piperidine-4-carboxylic acid (2,3-dihydro-benzofuran-5-yl)-amide] | 770 nM |

The next compounds have a lower IC50 than those just listed; values first:

| IC50 | Compound |
| --- | --- |
| 150 nM | Cc1ccc(S(=O)(=O)N2CCC(C(=O)Nc3ccc(OC(CO)C(F)(F)F)cc3)CC2)cc1 (racemic) [Example 45, (rac)-1-(Toluene-4-sulfonyl)-piperidine-4-carboxylic acid [4-(2,2,2-trifluoro-1-hydroxymethyl-ethoxy)-phenyl]-amide] |
| 120 nM | Cc1ccc(S(=O)(=O)N2CCC(C(=O)Nc3ccc(OC(F)F)cc3)CC2)cc1 [Example 13, 1-(Toluene-4-sulfonyl)-piperidine-4-carboxylic acid (4-difluoromethoxy-phenyl)-amide] |
| 80 nM | COCC(Oc1ccc(NC(=O)C2CCN(S(=O)(=O)c3ccc(C)cc3)CC2)cc1)C(F)(F)F (racemic) [Example 54, (rac)-1-(Toluene-4-sulfonyl)-piperidine-4-carboxylic acid [4-(2,2,2-trifluoro-1-methoxymethyl-ethoxy)-phenyl]-amide] |
| 80 nM | Cc1ccc(S(=O)(=O)N2CCC(C(=O)Nc3ccc(OC(F)(F)F)cc3)CC2)cc1 [Example 1, 1-(Toluene-4-sulfonyl)-piperidine-4-carboxylic acid (4-trifluoromethoxy-phenyl)-amide] |
| 70 nM | Cc1ccc(S(=O)(=O)N2CCC(C(=O)Nc3ccc(OC(C)C)cc3)CC2)cc1 [Example 7, 1-(Toluene-4-sulfonyl)-piperidine-4-carboxylic acid (4-isopropoxy-phenyl)-amide] |
| 40 nM | Cc1ccc(S(=O)(=O)N2CCC(C(=O)N(C)c3ccc(OC(F)(F)F)cc3)CC2)cc1 [Example 16, 1-(Toluene-4-sulfonyl)-piperidine-4-carboxylic acid methyl-(4-trifluoromethoxy-phenyl)-amide] |
